Assay: xn = mol fraction of the nth substance listed
Conditions: 343.15 K, Liquid

CCOS(=O)(=O)[O-].CCn1cc[n+](C)c1 [1-ethyl-3-methylimidazolium ethyl sulfate] + CCO
mass density [kg/m3]
Conditions | 100 kPa | 2500 kPa | 5000 kPa | 10000 kPa | 15000 kPa | 20000 kPa | 25000 kPa | 30000 kPa | 35000 kPa
x1 = 0.05056 | 818.25 | 820.66 | 823.11 | 827.83 | 832.27 | 836.51 | 840.54 | 844.41 | 848.12
x1 = 0.103 | 877.67 | 879.77 | 881.99 | 886.23 | 890.27 | 894.14 | 897.85 | 901.43 | 904.85
x1 = 0.1247 | 899.5 | 901.47 | 903.69 | 907.82 | 911.68 | 915.39 | 918.99 | 922.46 | 925.77
x1 = 0.2126 | 969.67 | 971.48 | 973.32 | 976.91 | 980.38 | 983.71 | 986.96 | 990.09 | 993.12
x1 = 0.2919 | 1019.38 | 1020.57 | 1022.23 | 1025.5 | 1028.64 | 1031.72 | 1034.69 | 1036.01 | 1040.41
x1 = 0.3185 | 1032.6 | 1034.03 | 1035.67 | 1038.87 | 1041.94 | 1044.93 | 1047.86 | 1050.69 | 1053.46
x1 = 0.4198 | 1076.98 | 1078.52 | 1080 | 1082.95 | 1085.8 | 1088.59 | 1091.31 | 1093.96 | 1096.54
x1 = 0.4847 | 1099.67 | 1100.97 | 1102.41 | 1105.21 | 1107.95 | 1110.61 | 1113.23 | 1115.78 | 1118.28
x1 = 0.5713 | 1125.7 | 1126.98 | 1128.32 | 1131.01 | 1133.6 | 1136.16 | 1138.67 | 1141.1 | 1143.48
x1 = 0.6827 | 1152.86 | 1154.1 | 1155.37 | 1157.89 | 1160.38 | 1162.8 | 1165.19 | 1167.53 | 1169.82
x1 = 0.7919 | 1175 | 1175.81 | 1177.05 | 1179.48 | 1181.84 | 1184.18 | 1186.47 | 1188.72 | 1190.93
x1 = 0.9317 | 1196.87 | 1198.02 | 1199.21 | 1201.52 | 1203.82 | 1206.06 | 1208.26 | 1210.44 | 1212.58

— the NIST ThermoML archive (doi:10.1021/je900414p)
